Source: patent publication US20160207930A1 (LEO PHARMA A/S, priority 2013, published 2016)

Key:
[1] = Hepatic intrinsic clearance following incubation in human liver microsomes; format: in vitro ADME; settings: 0.5 μM test compound, NADPH, 0-30 min, scaled to g liver
Method: Hepatic Extraction Ratio from Hepatic Intrinsic Clearance Following Incubation in Human Liver Microsomes
The general procedure consists of an automated incubation system and LC-MS/MS analysis with human liver microsomes. Human liver microsomes are thawed rapidly in a waterbath at 37° C. and kept on ice until use. The human liver microsomes are diluted with 50 mM potassium phosphate buffer pH 7.4 to a protein concentration of 0.55 mg/mL. Test compounds and positive controls (Verapamil and Dextromethorphan, positive controls for CYP3A4 for CYP2D6 isoforms, respectively) are dissolved in methanol (or other appropriate solvent, if necessary) in order to obtain a 5 mM solution which is further diluted to the concentration of 50 μM. The stock solutions are prepared immediately before the test.
5 μL of 50 μM test compounds and controls are added to 445 μL-of the 0.55 mg/mL microsomes solution and the incubation mixture are pre-warmed at 37° C. for 5 minutes. The incubation reactions are initiated by adding 50 μL of pre-warmed NADPH regenerating system to the incubation mixtures. 50 μL-aliquots will be taken from the incubation mixtures at: 0, 3, 6, 9, 15 and 30 minutes and the reactions are stopped by adding 100 μL of ACN containing Rolipram, used as generic Internal Standard (IS). Samples are then diluted with 120 μL of Milli-Q water and centrifuged at 3000 rpm for 10 minutes, prior the LC-MS/MS analysis.
The integrated peak areas for test compounds at the selected time points are divided by the respective peak areas of the IS and the percent of parent remaining is calculated by normalizing the peak area ratio of parent to IS at 0 min. Observed rate constant (kobs) for parent degradation is calculated by determining the slope of the line of the graph of the natural log of percentage parent remaining versus time of incubation. From the rate of depletion (min−1) and volume of the incubation (mL), clearance is estimated. This is scaled for the protein in the incubation relative to that in the intact liver, for all species (mL/min/g liver).
Values for the Human in vitro Clint are expressed as mL/min/g liver.
Assuming a liver weight of 25.7 g/kg and a liver blood flow of 20.7 mL/min/kg, the hepatic extraction ratio, Eh, can be derived from the Human in vitro Clint:
E.g. a Human in vitro Clint of 2.4 mL/min/g liver corresponds to a hepatic extraction ratio of 75%.
Some compounds of the present invention were tested according to example 101.

NK1 Receptor = molecular target: T1, NK1 Receptor (Homo sapiens, UniProt P25103); assay: NK1 receptor mediated intracellular [Ca2+] mobilization in U251 MG cells using FLIPR; format: cell-based; settings: antagonism of Substance P (EC80), Fluo-4, read-out: NK1R mediated intracellular [Ca^2+] mobilization IC 50
T1 construct: Measurement of NK1 Receptor Mediated Intracellular [Ca^2+]; Mobilization in U251 MG Cells Using FLIPR; endogenous in cells; host or cells: U251 MG cells
Method: Measurement of NK1 Receptor Mediated Intracellular [Ca^2+] Mobilization in U251 MG Cells Using FLIPR
U251 MG cells were seeded into black walled clear-bottom 384-well plates (Greiner Bio-One GmbH, Frickenhausen, Germany) at a density of 15,000 cells/well in 50 μl culture medium and cultured overnight in a 37° C. 5% CO2 incubator. The cells were then loaded with the calcium sensitive dye Fluo-4 (Invitrogen) at 1 μM in buffer, containing 0.04% Pluronic F-127 (Sigma-Aldrich), and 2.5 mM probenecid (Sigma-Aldrich) for 60 min in a humidified atmosphere of 5% CO2. Thereafter, cells were washed three times in washing buffer containing 20 mM HEPES and 2.5 mM probenecid pH 7.3. Serial dilutions of test compounds in assay buffer containing 2% dimethyl sulfoxide (final concentration in the cell plate is 0.5% DMSO) and/or agonist were then automatically pipetted into each test well, and the peak fluorescence intensity was recorded (lex, 488 nm; lem, 540 nm) by the FLIPR instrument (Molecular Devices) for approximately 5 min. To measure antagonist potency, cell plates were first incubated with the test compound and intracellular fluorescence recorded for 5 minutes to check a potential agonist effect of the test compound. Cell plates were quickly removed from the FLIPR instrument and incubated for additional 10 minutes at 37° C. before being moved back to the FLIPR instrument for Substance P (EC80) addition. The response was measured as the peak relative fluorescence change after agonist addition.
Compound relative %-effect was normalized to the maximal response evoked by 100 nM Aprepitant in presence of the EC80 of Substance P and the antagonist potency determined by non-linear regression using GraphPad Prism (version 5) or the four-parameter logistic model in XLfit (IDBS, Guilford, UK) for Microsoft Excel (Microsoft, Redmond, Wash.). The IC50 value is defined as the molar concentration of a test compound that produces a response midway between the fitted top and the fitted bottom. pIC50=−log IC50
Formula is listed as follows:
Fit (% Effect calculated)=(A+((B−A)/(1+((C/X)̂D)))) • A: bottom value • B: top value • C: test compound concentration • X: Relative IC50 • D: Hill slope coefficient
Ref: Sullivan E, Tucker E M, and Dale I L. Measurement of [Ca^2+] using the Fluorometric Imaging Plate Reader (FLIPR). Methods Mol Biol 114:125-133, 1999.
Compounds of the present invention were tested according to example 100.

T1 sequence (P25103 whole entry): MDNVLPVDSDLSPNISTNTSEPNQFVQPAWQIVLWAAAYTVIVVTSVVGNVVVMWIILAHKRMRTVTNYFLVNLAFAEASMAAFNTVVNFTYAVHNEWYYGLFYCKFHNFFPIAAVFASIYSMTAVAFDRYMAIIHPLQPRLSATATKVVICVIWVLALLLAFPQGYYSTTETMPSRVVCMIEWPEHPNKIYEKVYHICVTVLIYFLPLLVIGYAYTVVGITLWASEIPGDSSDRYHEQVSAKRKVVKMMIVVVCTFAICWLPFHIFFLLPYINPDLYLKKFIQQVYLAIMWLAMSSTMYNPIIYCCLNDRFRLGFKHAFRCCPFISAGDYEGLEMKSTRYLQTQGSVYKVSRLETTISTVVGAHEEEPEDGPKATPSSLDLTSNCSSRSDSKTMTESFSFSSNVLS

Row | Human in vitro Clint [1] [mL/min/g] | IC50 (NK1 Receptor) [nM] | SMILES
1 | 78 | 0.037 | CCc1cc([C@@H](C)N(C)C(=O)N2CCN3C(=O)CC[C@H]3[C@@H]2c2ccc(F)cc2C)cc(C(F)(F)F)c1 [Compound 23, (1S,8aS)—N—((R)-1-(3-ethyl-5-(trifluoromethyl)phenyl)ethyl)-1-(4-fluoro-2-methylphenyl)-N-methyl-6-oxohexahydropyrrolo[1,2-a]pyrazine-2(1H)-carboxamide]
2 | >200 | 0.514 | CCc1cc([C@@H](C)N(C)C(=O)N2CCN3C(=O)CC[C@H]3[C@@H]2c2cccs2)cc(C(F)(F)F)c1 [Compound 54, (1R,8aS)—N—((R)-1-(3-ethyl-5-(trifluoromethyl)phenyl)ethyl)-N-methyl-6-oxo-1-(thiophen-2-yl)hexahydropyrrolo[1,2-a]pyrazine-2(1H)-carboxamide]
3 | >200 | 1.15 | COc1ccc(C2C3CCC(=O)N3CCN2C(=O)N(C)[C@H](C)c2cc(C(F)(F)F)cc(C(F)(F)F)c2)c(C)c1 (single isomer, unassigned) [Compound 18]
4 | >200 | 0.139 | Cc1cc(CN(C)C(=O)N2CCN3C(=O)C(CCO)(CCO)C[C@H]3[C@@H]2c2ccccc2C)nc(C(F)(F)F)c1 [Compound 33, (1S,8aS)-7,7-bis(2-hydroxyethyl)-N-methyl-N-((4-methyl-6-(trifluoromethyl)pyridin-2-yl)methyl)-6-oxo-1-o-tolylhexahydropyrrolo[1,2-a]pyrazine-2(1H)-carboxamide]
5 | >200 | 0.08 | Cc1ccsc1[C@H]1[C@@H]2CCC(=O)N2CCN1C(=O)N(C)[C@H](C)c1cc(C(F)(F)F)cc(C(F)(F)F)c1 [Compound 50]
6 | >200 | 2.57 | C[C@H](c1cc(C(F)(F)F)cc(C(F)(F)F)c1)N(C)C(=O)N1CCN2C(=O)CC[C@H]2[C@@H]1c1cccc2c1CCC2 [Compound 79, (1S,8aS)—N—((R)-1-(3,5-bis(trifluoromethyl)phenyl)ethyl)-1-(2,3-dihydro-1H-inden-4-yl)-N-methyl-6-oxohexahydropyrrolo[1,2-a]pyrazine-2(1H)-carboxamide]
7 | >200 | 0.26 | CCc1cc([C@@H](C)N(C)C(=O)N2CCN3C(=O)CC[C@H]3[C@@H]2c2scc(C)c2C)cc(C(F)(F)F)c1 [Compound 76, (1R,8aS)-1-(3,4-dimethylthiophen-2-yl)-N—((R)-1-(3-ethyl-5-(trifluoromethyl)phenyl)ethyl)-N-methyl-6-oxohexahydropyrrolo[1,2-a]pyrazine-2(1H)-carboxamide]
8 | >200 | 3.5 | CC(C)c1cc([C@@H](C)N(C)C(=O)N2CCN3C(=O)CC[C@H]3[C@@H]2c2cccc3c2CCC3)cc(C(F)(F)F)c1 [Compound 81, (1S,8aS)-1-(2,3-dihydro-1H-inden-4-yl)-N—((R)-1-(3-isopropyl-5-(trifluoromethyl)phenyl)ethyl)-N-methyl-6-oxohexahydropyrrolo[1,2-a]pyrazine-2(1H)-carboxamide]
9 | >200 | 59 | CCc1cc([C@@H](C)N(C)C(=O)N2CCN3C(=O)CC[C@H]3[C@@H]2c2c[nH]nc2C)cc(C(F)(F)F)c1 [Compound 61, (1S,8aS)—N—((R)-1-(3-ethyl-5-(trifluoromethyl)phenyl)ethyl)-N-methyl-1-(3-methyl-1H-pyrazol-4-yl)-6-oxohexahydropyrrolo[1,2-a]pyrazine-2(1H)-carboxamide]
10 | 40 | 0.137 | Cc1cc(F)ccc1[C@H]1[C@@H]2CCC(=O)N2CCN1C(=O)N(C)[C@H](C)c1cc(C(F)(F)F)cc(C(F)(F)F)c1 [Compound 20, (1S,8aS)—N—((R)-1-(3,5-bis(trifluoromethyl)phenyl)ethyl)-1-(4-fluoro-2-methylphenyl)-N-methyl-6-oxohexahydropyrrolo[1,2-a]pyrazine-2(1H)-carboxamide]
11 | 104 | 2.54 | Cc1cc(F)ccc1C1C2CC(CCO)(CCO)C(=O)N2CCN1C(=O)N(C)[C@H](C)c1cc(C(F)(F)F)cc(C(F)(F)F)c1 (single isomer, unassigned) [Compound 15]
12 | >200 | 0.152 | Cc1sccc1[C@H]1[C@@H]2CCC(=O)N2CCN1C(=O)N(C)[C@H](C)c1cc(C(F)(F)F)cc(C(F)(F)F)c1 [Compound 57, (1S,8aS)—N—((R)-1-(3,5-bis(trifluoromethyl)phenyl)ethyl)-N-methyl-1-(2-methylthiophen-3-yl)-6-oxohexahydropyrrolo[1,2-a]pyrazine-2(1H)-carboxamide]
13 | – | 2.97 | Cc1cccnc1[C@H]1[C@@H]2CCC(=O)N2CCN1C(=O)N(C)[C@H](C)c1cc(C(F)(F)F)cc(C(F)(F)F)c1 [Compound 43, (1R,8aS)—N—((R)-1-(3,5-bis(trifluoromethyl)phenyl)ethyl)-N-methyl-1-(3-methylpyridin-2-yl)-6-oxo-hexahydropyrrolo[1,2-a]pyrazine-2(1H)-carboxamide]
14 | – | 31.8 | Cc1n[nH]cc1[C@H]1[C@@H]2CCC(=O)N2CCN1C(=O)N(C)[C@H](C)c1cc(C(F)(F)F)cc(C(F)(F)F)c1 [Compound 60, (1S,8aS)—N—((R)-1-(3,5-bis(trifluoromethyl)phenyl)ethyl)-N-methyl-1-(3-methyl-1H-pyrazol-4-yl)-6-oxohexahydropyrrolo[1,2-a]pyrazine-2(1H)-carboxamide]
15 | – | 0.06 | C[C@H](c1cc(C(F)(F)F)cc(C(F)(F)F)c1)N(C)C(=O)N1CCN2C(=O)CC[C@H]2[C@@H]1c1ccc(F)cc1Cl (single isomer, unassigned) [Compound 83]
16 | – | 0.893 | Cc1ncccc1[C@H]1[C@@H]2CCC(=O)N2CCN1C(=O)N(C)[C@H](C)c1cc(C(F)(F)F)cc(C(F)(F)F)c1 [Compound 47, (1S,8aS)—N—((R)-1-(3,5-bis(trifluoromethyl)phenyl)ethyl)-N-methyl-1-(2-methylpyridin-3-yl)-6-oxo-hexahydropyrrolo[1,2-a]pyrazine-2(1H)-carboxamide]
17 | – | 1.15 | C[C@H](c1cc(C(F)(F)F)cc(C(F)(F)F)c1)N(C)C(=O)N1CCN2C(=O)CC[C@H]2[C@@H]1c1ccc(F)cc1Cl (single isomer, unassigned) [Compound 84]
18 | – | 0.02 | C[C@H](c1cc(C(F)(F)F)cc(C(F)(F)F)c1)N(C)C(=O)N1CCN2C(=O)CC[C@H]2[C@@H]1c1ccccc1Cl (single isomer, unassigned) [Compound 72]
19 | – | 1.38 | C[C@H](c1cc(C(F)(F)F)cc(C(F)(F)F)c1)N(C)C(=O)N1CCN2C(=O)CC[C@H]2[C@@H]1c1ccccc1Cl (single isomer, unassigned) [Compound 73]
